Structures are written as SMILES. Counter-ions that a name gives are not always drawn.

Broadly, the melting point is the temperature, or range, at which the solid turns liquid.

`O=C(c1n[nH]c2c1CCNC2)N1CCC(c2ccccc2C(F)(F)F)CC1` (as salt: hydrochloride) [Example 16, (4,5,6,7-Tetrahydro-1H-pyrazolo[3,4-c]pyridin-3-yl)(4-(2-(trifluoromethyl)phenyl)piperidin-1-yl)methanone Hydrochloride] had a melting point of 272 to 278 °C. As to `Cn1nc(C(=O)N2CCC(c3ccccc3C(F)(F)F)CC2)c2c1CCOC2` [Example 1, (1-Methyl-1,4,6,7-tetrahydropyrano[4,3-c]pyrazol-3-yl)(4-(2-(trifluoromethyl)phenyl)piperidin-1-yl)methanone], the melting point was 44 to 46 °C. `Cn1nc(C(=O)N2CCC(c3ccccc3C(F)(F)F)CC2)c2c1CC(C)(C)OC2` [Example 2, (4-(2-(Trifluoromethyl)phenyl)piperidin-1-yl)(1,6,6-trimethyl-1,4,6,7-tetrahydropyrano[4,3-c]pyrazol-3-yl)methanone]: the melting point fell in the range of 58 to 64 °C.

In turn, `Cn1nc(C(=O)N2CCC(c3ccccc3C(F)(F)F)CC2)c2c1CCS(=O)(=O)C2` [Example 3, (1-methyl-5,5-dioxido-1,4,6,7-tetrahydrothiopyrano[4,3-c]pyrazol-3-yl)(4-(2-(trifluoromethyl)phenyl)piperidin-1-yl)methanone] registered a melting point of 232 to 234 °C.

For the compound `CC(=O)N1Cc2[nH]nc(C(=O)N3CCC(c4ccccc4C(F)(F)F)CC3)c2C1` [Example 7, 1-(3-(4-(2-(Trifluoromethyl)phenyl)piperidine-1-carbonyl)pyrrolo[3,4-c]pyrazol-5(1H,4H,6H)-yl)ethanone], the melting point is 186 to 192 °C. With `CN1CCCc2[nH]nc(C(=O)N3CCC(c4ccccc4C(F)(F)F)CC3)c2C1` [Example 10, (5-Methyl-1,4,5,6,7,8-hexahydropyrazolo[4,3-c]azepin-3-yl)(4-(2-(trifluoromethyl)phenyl)piperidin-1-yl)methanone], the melting point fell in the range of 75 to 85 °C. `CC(=O)N1CCc2c(C(=O)N3CCC(c4ccccc4C(F)(F)F)CC3)n[nH]c2C1` [Example 17, 1-(3-(4-(2-(Trifluoromethyl)phenyl)piperidine-1-carbonyl)-4,5-dihydro-1H-pyrazolo[3,4-c]pyridin-6(7H)-yl)ethanone] came in with a melting point of 202 to 209 °C. Take `CS(=O)(=O)N1CCc2c(C(=O)N3CCC(c4ccccc4C(F)(F)F)CC3)n[nH]c2C1` [Example 18, (6-(Methylsulfonyl)-4,5,6,7-tetrahydro-1H-pyrazolo[3,4-c]pyridin-3-yl)(4-(2-(trifluoromethyl)phenyl)piperidin-1-yl)methanone]: the melting point lay in the range of 242 to 245 °C. As to `CN1CCc2c(C(=O)N3CCC(c4ccccc4C(F)(F)F)CC3)n[nH]c2C1` [Example 19, (6-Methyl-4,5,6,7-tetrahydro-1H-pyrazolo[3,4-c]pyridin-3-yl)(4-(2-(trifluoromethyl)phenyl)piperidin-1-yl)methanone], the melting point fell in the range of 115 to 120 °C. `Cn1nc(C(=O)N2CCC(c3ccccc3C(F)(F)F)CC2)c2cc(F)ccc21` [Example 21, (5-Fluoro-1-methyl-1H-indazol-3-yl)(4-(2-(trifluoromethyl)phenyl)piperidin-1-yl)methanone] registered a melting point of 161 to 163 °C. The compound `O=C(c1n[nH]c2c1CNCC2)N1CCC(c2ccccc2C(F)(F)F)CC1` [Example 26, (4,5,6,7-Tetrahydro-1H-pyrazolo[4,3-c]pyridin-3-yl)(4-(2-(trifluoromethyl)phenyl)piperidin-1-yl)methanone] yielded a melting point of 270 to 272 °C. For the compound `CC(=O)N1CCc2[nH]nc(C(=O)N3CCC(c4ccccc4C(F)(F)F)CC3)c2C1` [Example 27, 1-(3-(4-(2-(Trifluoromethyl)phenyl)piperidine-1-carbonyl)-6,7-dihydro-1H-pyrazolo[4,3-c]pyridin-5(4H)-yl)ethanone], the melting point fell in the range of 208 to 211 °C.

With `CS(=O)(=O)N1CCc2[nH]nc(C(=O)N3CCC(c4ccccc4C(F)(F)F)CC3)c2C1` [Example 28, (5-(Methylsulfonyl)-4,5,6,7-tetrahydro-1H-pyrazolo[4,3-c]pyridin-3-yl)(4-(2-(trifluoromethyl)phenyl)piperidin-1-yl)methanone], the melting point fell in the range of 240 to 243 °C. Under `O=C(c1n[nH]c2ncccc12)N1CCC(c2ccccc2C(F)(F)F)CC1` [Example 30, (1H-pyrazolo[3,4-b]pyridin-3-yl)(4-(2-(trifluoromethyl)phenyl)piperidin-1-yl)methanone] stands 202 to 205 °C; under `O=C(c1n[nH]c2cc(F)c(F)cc12)N1CCC(c2ccccc2C(F)(F)F)CC1` [Example 34, (5,6-Difluoro-1H-indazol-3-yl)(4-(2-(trifluoromethyl)phenyl)piperidin-1-yl)methanone], 233 to 235 °C; under `N#Cc1ccc2[nH]nc(C(=O)N3CCC(c4ccccc4C(F)(F)F)CC3)c2c1` [Example 36, 3-(4-(2-(Trifluoromethyl)phenyl)piperidine-1-carbonyl)-1H-indazole-5-carbonitrile], 249 to 252 °C. Compound `CCS(=O)(=O)N1CCc2[nH]nc(C(=O)N3CCC(c4ccccc4C(F)(F)F)CC3)c2C1` [Example 37, (5-(Ethylsulfonyl)-4,5,6,7-tetrahydro-1H-pyrazolo[4,3-c]pyridin-3-yl)(4-(2-(trifluoromethyl)phenyl)piperidin-1-yl)methanone] yielded a melting point of 187 to 189 °C. Turning to `CC(C)CS(=O)(=O)N1CCc2[nH]nc(C(=O)N3CCC(c4ccccc4C(F)(F)F)CC3)c2C1` [Example 38, (5-(Isobutylsulfonyl)-4,5,6,7-tetrahydro-1H-pyrazolo[4,3-c]pyridin-3-yl)(4-(2-(trifluoromethyl)phenyl)piperidin-1-yl)methanone], the melting point was 178 to 180 °C. The compound `CC(C)S(=O)(=O)N1CCc2[nH]nc(C(=O)N3CCC(c4ccccc4C(F)(F)F)CC3)c2C1` [Example 39, (5-(Isopropylsulfonyl)-4,5,6,7-tetrahydro-1H-pyrazolo[4,3-c]pyridin-3-yl)(4-(2-(trifluoromethyl)phenyl)piperidin-1-yl)methanone] had a melting point of 199 to 201 °C. As to `CC(C)(C)C(=O)N1CCc2[nH]nc(C(=O)N3CCC(c4ccccc4C(F)(F)F)CC3)c2C1` [Example 40, 2,2-Dimethyl-1-(3-(4-(2-(trifluoromethyl)phenyl)piperidine-1-carbonyl)-6,7-dihydro-1H-pyrazolo[4,3-c]pyridin-5(4H)-yl)propan-1-one], the melting point is 126 to 128 °C.

Take `CC(C)C(=O)N1CCc2[nH]nc(C(=O)N3CCC(c4ccccc4C(F)(F)F)CC3)c2C1` [Example 41, 2-Methyl-1-(3-(4-(2-(trifluoromethyl)phenyl)piperidine-1-carbonyl)-6,7-dihydro-1H-pyrazolo[4,3-c]pyridin-5(4H)-yl)propan-1-one]: the melting point fell in the range of 112 to 114 °C. `CC(C)CC(=O)N1CCc2[nH]nc(C(=O)N3CCC(c4ccccc4C(F)(F)F)CC3)c2C1` [Example 42, 3-Methyl-1-(3-(4-(2-(trifluoromethyl)phenyl)piperidine-1-carbonyl)-6,7-dihydro-1H-pyrazolo[4,3-c]pyridin-5(4H)-yl)butan-1-one] had a melting point of 107 to 109 °C. `CCN1CCc2[nH]nc(C(=O)N3CCC(c4ccccc4C(F)(F)F)CC3)c2C1` [Example 43, (5-Ethyl-4,5,6,7-tetrahydro-1H-pyrazolo[4,3-c]pyridin-3-yl)(4-(2-(trifluoromethyl)phenyl)piperidin-1-yl)methanone] returned a melting point of 159 to 162 °C. On to `CCC(=O)N1CCc2[nH]nc(C(=O)N3CCC(c4ccccc4C(F)(F)F)CC3)c2C1` [Example 44, 1-(3-(4-(2-(Trifluoromethyl)phenyl)piperidine-1-carbonyl)-6,7-dihydro-1H-pyrazolo[4,3-c]pyridin-5(4H)-yl)propan-1-one], for which the melting point is 153 to 155 °C. `CC(C)CN1CCc2[nH]nc(C(=O)N3CCC(c4ccccc4C(F)(F)F)CC3)c2C1` [Example 45, (5-Isobutyl-4,5,6,7-tetrahydro-1H-pyrazolo[4,3-c]pyridin-3-yl)(4-(2-(trifluoromethyl)phenyl)piperidin-1-yl)methanone] yielded a melting point of 105 to 107 °C.

`O=C(c1n[nH]c2c1CN(C1COC1)CC2)N1CCC(c2ccccc2C(F)(F)F)CC1` [Example 46, (5-(Oxetan-3-yl)-4,5,6,7-tetrahydro-1H-pyrazolo[4,3-c]pyridin-3-yl)(4-(2-(trifluoromethyl)phenyl)piperidin-1-yl)methanone] gave a melting point of 107 to 110 °C.

Consider `O=C(CC(F)(F)F)N1CCc2[nH]nc(C(=O)N3CCC(c4ccccc4C(F)(F)F)CC3)c2C1` [Example 47, 3,3,3-Trifluoro-1-(3-(4-(2-(trifluoromethyl)phenyl)piperidine-1-carbonyl)-6,7-dihydro-1H-pyrazolo[4,3-c]pyridin-5(4H)-yl)propan-1-one], for which the melting point was 127 to 130 °C. With `COCC(=O)N1CCc2[nH]nc(C(=O)N3CCC(c4ccccc4C(F)(F)F)CC3)c2C1` [Example 48, 2-Methoxy-1-(3-(4-(2-(trifluoromethyl)phenyl)piperidine-1-carbonyl)-6,7-dihydro-1H-pyrazolo[4,3-c]pyridin-5(4H)-yl)ethanone], the melting point was in the range of 192 to 194 °C. Under `CCC(=O)N1CCc2c(C(=O)N3CCC(c4ccccc4C(F)(F)F)CC3)n[nH]c2C1` [Example 49, 1-(3-(4-(2-(Trifluoromethyl)phenyl)piperidine-1-carbonyl)-4,5-dihydro-1H-pyrazolo[3,4-c]pyridin-6(7H)-yl)propan-1-one] stands 162 to 164 °C; under `CC(C)S(=O)(=O)N1CCc2c(C(=O)N3CCC(c4ccccc4C(F)(F)F)CC3)n[nH]c2C1` [Example 51, (6-(Isopropylsulfonyl)-4,5,6,7-tetrahydro-1H-pyrazolo[3,4-c]pyridin-3-yl)(4-(2-(trifluoromethyl)phenyl)piperidin-1-yl)methanone], 220 to 222 °C.

On to `CC(C)C(=O)N1CCc2c(C(=O)N3CCC(c4ccccc4C(F)(F)F)CC3)n[nH]c2C1` [Example 52, 2-Methyl-1-(3-(4-(2-(trifluoromethyl)phenyl)piperidine-1-carbonyl)-4,5-dihydro-1H-pyrazolo[3,4-c]pyridin-6(7H)-yl)propan-1-one], for which the melting point lay within 200 to 203 °C.

Values taken from patent US10273243B2, “4-phenylpiperidines, their preparation and use” (The Trustees of Columbia University in the City of New York, priority 2013, dated 2019).
